Reference: patent publication US20190337971A1, “PANTETHEINE DERIVATIVES FOR THE TREATMENT OF NEUROLOGIC DISORDERS” (Retrophin, Inc., priority 2016, published 2019)
Read-outs that look alike come from different tables or passages of the source.

Key:
Format in all cases: in vitro ADME
[1] = Stability of compounds in mouse hepatocytes; conditions: cryopreserved mouse hepatocytes in suspension, 37° C., 0-240 min
Protocol: Stability in hepatocytes for select compounds disclosed in the application was evaluated in two species (mouse and human) according to the following procedure. Compounds and positive control samples were dissolved in 100% DMSO at 5 mM. Cryopreserved hepatocytes were thawed and resuspended in Hepatocyte Basal Medium (HBM-Lonza CC-3199) supplemented with CC-4182 (complete hepatocyte culture medium). Test compounds were diluted into cell suspension (1 million cells/ml) from the stock solutions to have a test compound concentration of 5 μM (0.1% DMSO). Incubation was performed in 24-well plates, at 37° C. in a DUBNOFF water bath, under low shaking. Each compound was tested at 6 time points, in duplicates (0, 15, 30, 60, 120, and 240 min). At each time point, an aliquot of 120 μl was taken and transferred to a 96-well deep plate. The reaction was stopped with the addition of one volume of 100% acetonitrile plus 0.1% formic acid and the appropriate internal standard. Samples then were centrifuged at 1100×g for 30 min at +4° C. and supernatants were transferred to a new 96-deepwell plate. Samples were evaporated under N2 and reconstituted in H2O/ACN 0.1% formic Acid (98:2). Analysis was performed without a calibration curve (Acquity UPLC-Waters; Sciex API4000). Time 0 was obtained adding acetonitrile before addition of the test compound. Stability was determined based on analysis of disappearance of the compounds as a function of incubation time. Quantification of test compounds was measured as a peak area relative to an internal standard. The elimination constant, k, is calculated by plotting mean disappearance values on a semi-logarithmic scale and fitting with a best fit linear regression. The half-life (t1/2) expressed in hours was derived using Equation 1:
t1/2=ln 2/(−k). Equation 1: […]

[2] = Stability in human whole blood; conditions: 37° C., up to 60 min
Protocol: The stability of selected compounds in human whole blood was evaluated according to the following protocol. Compounds and positive control samples were dissolved in 100% DMSO at 3 mM (stock solution). To investigate the stability of the test compounds in whole blood, a 200 μM working solution (WS) in water has been prepared by adding 66.66 μl of each 3 mM stock solution to 933.34 μl of water (6.66% DMSO content). After pre-incubation of the whole blood at 37° C. for 5 min in an eppendorf, 10.5 μl of each working solution were spiked into 689.5 μl of heated blood. The obtained 3 μM solution in blood (0.1% DMSO content) was quickly stirred and 100 μl for each time point were transferred to an eppendorf. Each compound was tested in duplicate at five time points (10, 20, 30, 40 and 60 min). At each time point, the reaction was stopped by quenching the spiked blood (100 μl) with 400 μl of 100% acetonitrile containing 0.1% formic acid. Then samples were centrifuged at 15600 rpm for 15 min at +4° C. and 200 μl of supernatant were transferred to a 96-deepwell plate. Samples were evaporated under N2 and reconstituted in H2O/ACN 0.1% formic Acid (98/2 v/v) containing the appropriate internal standard. Analysis was performed without a calibration curve by using an Acquity-UPLC (Waters) coupled to a triple quadrupole mass spectrometer (SciexAPI4000). Time point 0 was obtained by adding 3 μL of each 200 μM working solution to 997 μL of the supernatant obtaining after centrifugation (15600 rpm for 15 min at +4° C.) of the blank matrix quenched with acetonitrile containing 0.1% formic acid.
Stability was determined based on analysis of disappearance of the compounds as a function of incubation time. Quantification of test compounds was measured as a peak area relative to an internal standard. The elimination constant k and half-life (t1/2) were determined as described above in Example 7.

[3] = Permeability in a porcine brain endothelial cell model of the blood-brain barrier; conditions: pig, luminal (apical) to basal, PBECs/As
Description: Compounds disclosed herein show the potential to reach mammalian brain by crossing the blood-brain barrier (BBB) from systemic circulation. […] The porcine brain endothelial cell permeability assay is an in vitro BBB model to be used for the prediction of central nervous system (CNS) drug permeability in vivo and for ranking or prioritization of compounds according to their permeability. This system can also be used for mechanistic studies and drug delivery strategies via receptor-mediated transport (transcytosis). The system is a two-dimensional co-culture, non-contact model of two types of primary cells: primary brain endothelial cells obtained from fresh porcine brains, and primary rat astrocytes, obtained from neonatal rats (PBECs/As). This ensures barrier formation and functional expression of key transporters.
The endothelial cells were cultured on rat-tail collagen type I and human fibronectin coated Transwell polycarbonate inserts (surface area 0.7 cm^2; pore size 0.4 μm) and the inserts were placed in 24-well plates containing confluent rat astrocytes. This system allows for the formation of a differentiated BBB model suitable for compound permeability in 10 days.
On the day of the experiment, culture medium was removed and cells were pre-incubated for 30 min with HBSS containing 20 mM Hepes pH 7.4 and 0.1% BSA. Donor volume (apical) was 400 μl and receiver volume (basal) 900 μl. Compounds were diluted in assay medium (at the desired concentration) and added to the luminal side (to mimic blood to brain passage). Transport was measured usually after 60 min by detecting the amount of compound from the basal (brain side). The integrity of the cell layers was assessed by measuring the transendothelial electrical resistance (TEER) and by monitoring FITC-dextran (40 KDa) permeation. Inserts with TEER values>500 Ω/cm^2 were selected for permeability studies. […] Fluorescence was measured using a fluorimetric detector. Radioactivity was measured by scintillation counting. […] After reconstitution, samples were analyzed by LC-MS/MS. Mass balance was determined considering the amount of compound recovered in the donor and receiver chamber at the end of the assay relative to the amount added to the donor chamber at time 0.
Permeability was defined as the apparent permeability coefficient (Papp), which is a measure of the appearance rate of the compound in the receiver chamber, expressed in cm/s. Papp is calculated according the following equation: […]
To correct for the contribution of filter and substrate, Papp was also determined for the cell-free system. Permeability of the endothelial cell layer was determined using the following equation: […]

[4] = Diastereoisomer A (upfield shift in 31P NMR), read-out: t1/2 (h) Mouse Hepatocytes Diastereoisomer A (converted)
[5] = Diastereoisomer B, read-out: t1/2 (h) Mouse Hepatocytes Diastereoisomer B
[6] = Diastereoisomer A (upfield shift in 31P NMR), read-out: t1/2 (h) Human Whole Blood Diastereoisomer A (converted)
[7] = Diastereoisomer B, read-out: t1/2 (h) Human Whole Blood Diastereoisomer B (converted)
[8] = pH 7.4, Diastereoisomer A (upfield shift in 31P NMR), read-out: Papp Diastereoisomer A
[9] = pH 7.4, Diastereoisomer B, read-out: Papp Diastereoisomer B

Question: Which half-life at 5 μM [1, 4] does the source give for CC(=O)SCCNC(=O)CCNC(=O)[C@@H]1OP(=O)(OCOC(=O)c2cc(C)nn2C)OCC1(C)C (stereo partly drawn) [R1007, (((4R)-4-((3-((2-(acetylthio)ethyl)amino)-3-oxopropyl)carbamoyl)-5,5-dimethyl-2-oxido-1,3,2-dioxaphosphinan-2-yl)oxy)methyl 1,3-dimethyl-1H-pyrazole-5-carboxylate] here?
Answer: The half-life at 5 μM was less than 0.25 h.

Question: And the half-life at 5 μM [1, 5]?
Answer: Its half-life at 5 μM is less than 0.25 h.

Question: And the half-life at 3 μM [2, 6]?
Answer: The half-life at 3 μM was 0.34 h.

Question: And the half-life at 3 μM [2, 7]?
Answer: Its half-life at 3 μM is less than 0.16 h.

Question: What about the Papp A→B at 60 min [3, 8] of the same compound?
Answer: Its Papp A→B at 60 min is 3.1 ×10⁻⁶ cm/s.

Question: What about the Papp A→B at 60 min [3, 9] of the same compound?
Answer: Its Papp A→B at 60 min is 3.6 ×10⁻⁶ cm/s.

Question: For CC(=O)SCCNC(=O)CCNC(=O)[C@@H]1OP(=O)(OCOC(=O)c2scnc2C)OCC1(C)C (stereo partly drawn) [R1006, (((4R)-4-((3-((2-(acetylthio)ethyl)amino)-3-oxopropyl)carbamoyl)-5,5-dimethyl-2-oxido-1,3,2-dioxaphosphinan-2-yl)oxy)methyl 4-methylthiazole-5-carboxylate], which half-life at 5 μM [1, 4] is on record?
Answer: Its half-life at 5 μM is 0.31 h.

Question: And the half-life at 5 μM [1, 5]?
Answer: Its half-life at 5 μM is less than 0.25 h.

Question: What about the half-life at 3 μM [2, 6] of the same compound?
Answer: Its half-life at 3 μM is 0.37 h.

Question: And the half-life at 3 μM [2, 7]?
Answer: Its half-life at 3 μM is less than 0.16 h.

Question: What about the Papp A→B at 60 min [3, 8] of the same compound?
Answer: Its Papp A→B at 60 min is 3.17 ×10⁻⁶ cm/s.

Question: And the Papp A→B at 60 min [3, 9]?
Answer: Its Papp A→B at 60 min is 3.18 ×10⁻⁶ cm/s.
